# Experimental data reported in patent publication US11680073B2, “Anticancer indenes, indanes, azaindenes, azaindanes, pharmaceutical compositions and uses” (ADT PHARMACEUTICALS, LLC, priority 2018, dated 2023).
# What was measured:
# [1] = system: HT-29, a non-Ras-driven line expressing wild-type, non-mutated Ras; test: Tumor cell growth inhibition, CellTiter-Glo ATP luminescence assay, HT-29; assay type: cell-based; conditions: HT-29, 72 h, human colon tumor cells, 3-day treatment, ten-fold serial dilutions, read-out: micromolar IC50 for HT-29
# Protocol: (§1) Human cancer cell lines are obtained from the American Type Culture Collection (ATCC). Cells are cultured using standard methods in RPMI-1640 growth medium supplemented with 5% fetal bovine serum (FBS). CellTiter-Glo ATP cell growth assay reagents are obtained from Promega and used according to the manufacturer's protocol. Cells are plated at a density of 5,000 cells per well in 96-well microplates or 1,250 cells per well in 384-well plates, then allowed to attach for at least 4 h. Test compounds are dissolved in dimethyl sulfoxide (DMSO), and this working stock is further diluted in growth medium for addition to cell cultures. Serial dilutions of the test compound are prepared in growth medium containing an equal amount of DMSO not exceeding 0.2% final concentration. Each compound concentration is tested in at least 3 separate samples per cell line. At the end of a 3-day treatment period, growth inhibition is analyzed using a bioluminescent assay of ATP concentration (Promega CellTiter-Glo) according to the manufacturer's protocol. Resulting luminescence is measured using the luminescence cartridge of the Molecular Devices Spectramax Paradigm microplate reader. Relative growth inhibition for each sample is determined by comparison with the values obtained for vehicle treated control samples. Growth inhibition values are plotted with the GraphPad Prism5 software using the 4-parameter logistic fit to obtain IC50 values, which corresponds to the growth inhibitory potency of the compound.
# (§2) This selected example illustrates the use of well-established human colon tumor cell lines with widely divergent Ras activation status to determine tumor cell growth inhibitory activity (IC50 values) and Ras selectivity values for some selected exemplary compounds of the present invention. Cell lines thus employed in this example are HCT-116, a highly Ras-driven line expressing mutant Ras, and HT-29, a non-Ras-driven line expressing wild-type, non-mutated Ras. Cells are plated at 5000 cells/well in 96-well plates, ten-fold serial dilutions of compounds are tested, each tested concentration in at least 3 separate samples per cell line, and viable cell numbers are measured using the Cell Titer Glo ATP luminescence assay (Promega). […] FIGS. 5-7 provide examples of full data sets from which numerical values, including Ras selectivity indices, can be calculated; data sets are shown for selected exemplary compounds 2090, 2096 and 2183. […]
# [2] = system: HCT-116, a highly Ras-driven line expressing mutant Ras; test: Tumor cell growth inhibition, CellTiter-Glo ATP luminescence assay, HCT-116; assay type: cell-based, human; conditions: for IC50: HCT-116, 72 h, human colon tumor cells, mutant Ras, 3-day treatment, ten-fold serial dilutions, read-out: micromolar IC50 for HCT-116; for HT-29/HCT-116 Ras Inhibitory Selectivity Index: ratio IC50 HT-29 / IC50 HCT-116, numbers greater than one indicate Ras selectivity
# Protocol: as §1, §2
# [3] = system: cells expressing mutant Ras; conditions: cited from earlier work
SMILES,IC50 [1] [µM],IC50 [2] [µM],HT-29/HCT-116 Ras Inhibitory Selectivity Index [2],"IC50 ([3]; cells expressing mutant Ras, read-out: IC50, growth inhibition of cells expressing mutant Ras) [µM]",selectivity versus cells lacking oncogenic Ras ([3]; versus cells lacking oncogenic Ras) [fold]
"COc1cc(/C=C2/C(C)=C(CC(=O)NCc3cccnc3)c3cc(F)ccc32)cc(OC)c1B1OC(C)(C)C(C)(C)O1 [compound 2200, (Z)-2-(1-(3,5-dimethoxy-4-(4,4,5,5-tetramethyl-1,3,2-dioxaborolan-2-yl)benzylidene)-5-fluoro-2-methyl-1H-inden-3-yl)-N-(pyridin-3-ylmethyl)acetamide]",6.65,6.18,1.08,,
Cc1onc(C(=O)N2CCN(C(c3ccc(Cl)cc3)c3ccc(Cl)cc3)CC2)c1[N+](=O)[O-] [ML210],,,,0.071,4
"COc1cc(/C=C2/C(C)=C(CNC(=O)c3ccco3)c3cc(F)ccc32)cc(OC)c1O [compound 2090, (Z)—N-((5-fluoro-1-(4-hydroxy-3,5-dimethoxybenzylidene)-2-methyl-1H-inden-3-yl)methyl)furan-2-carboxamide]",13,0.3,43,,

# More lines, in order of falling IC50 [1], values ahead:
IC50 [1] [µM],IC50 [2] [µM],SMILES,HT-29/HCT-116 Ras Inhibitory Selectivity Index [2],"IC50 ([3]; cells expressing mutant Ras, read-out: IC50, growth inhibition of cells expressing mutant Ras) [µM]",selectivity versus cells lacking oncogenic Ras ([3]; versus cells lacking oncogenic Ras) [fold]
9.28,0.42,"COc1cc(/C=C2/C(C)=C(CNC(=O)c3cn[nH]c3)c3cc(F)ccc32)cc(OC)c1O [compound 2183, (Z)—N-((5-fluoro-1-(4-hydroxy-3,5-dimethoxybenzylidene)-2-methyl-1H-inden-3-yl)methyl)-1H-pyrazole-4-carboxamide]",22,,
9,0.033,"COc1cc(/C=C2/C(C)=C(CNC(=O)Cc3cccnc3)c3cc(F)ccc32)cc(OC)c1O [compound 2096, (Z)—N-((5-fluoro-1-(4-hydroxy-3,5-dimethoxybenzylidene)-2-methyl-1H-inden-3-yl)methyl)-2-(pyridin-3-yl)acetamide]",273,,
8.03,0.212,"COc1cc(CC2c3ccc(F)cc3C(CC(=O)NCc3ccccc3)C2C)cc(OC)c1O (centres unmarked) [compound 1796, N-benzyl-2-(6-fluoro-3-(4-hydroxy-3,5-dimethoxybenzyl)-2-methyl-2,3-dihydro-1H-inden-1-yl)acetamide]",38,,
5.59,5.05,"COc1cc(/C=C2/C(C)=C(CC(=O)NCc3cccnc3)c3cc(F)ccc32)cc(OC)c1B(O)O [compound 1736, (Z)-(4-((5-fluoro-2-methyl-3-(2-oxo-2-((pyridin-3-ylmethyl)amino)ethyl)-1H-inden-1-ylidene)methyl)-2,6-dimethoxyphenyl)boronic acid]",1.11,,
